Among the data in US20260285802A1, “MODULATORS OF SORTILIN ACTIVITY” (priority 2023, published 2026) are Kd values, retold here.

The target of the assay is T1, Human (6-His) Sortilin (Homo sapiens, UniProt Q99523).
T1 sequence (Q99523 78-831): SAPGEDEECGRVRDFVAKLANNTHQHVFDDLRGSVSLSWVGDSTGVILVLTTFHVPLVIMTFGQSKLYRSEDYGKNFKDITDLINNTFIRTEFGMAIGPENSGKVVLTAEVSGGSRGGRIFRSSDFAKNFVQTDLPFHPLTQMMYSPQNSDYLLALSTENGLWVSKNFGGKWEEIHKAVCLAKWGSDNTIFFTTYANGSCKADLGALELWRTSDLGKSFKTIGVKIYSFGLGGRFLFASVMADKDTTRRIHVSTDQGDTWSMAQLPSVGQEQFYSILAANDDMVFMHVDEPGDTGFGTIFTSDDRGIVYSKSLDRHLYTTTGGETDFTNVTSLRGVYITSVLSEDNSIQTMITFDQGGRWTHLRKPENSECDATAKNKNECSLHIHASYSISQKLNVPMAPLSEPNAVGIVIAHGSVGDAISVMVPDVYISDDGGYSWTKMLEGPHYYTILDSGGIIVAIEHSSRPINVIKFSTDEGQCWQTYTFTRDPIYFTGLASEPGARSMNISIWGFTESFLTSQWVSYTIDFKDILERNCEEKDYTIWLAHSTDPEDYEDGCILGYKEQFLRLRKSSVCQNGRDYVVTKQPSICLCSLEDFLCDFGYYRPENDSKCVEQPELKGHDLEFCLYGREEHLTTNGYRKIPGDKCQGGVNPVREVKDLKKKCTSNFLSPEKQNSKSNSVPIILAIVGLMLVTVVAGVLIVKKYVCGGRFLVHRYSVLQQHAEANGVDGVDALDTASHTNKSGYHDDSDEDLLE
Kind of assay: biochemical.
With `CC(C)(C)CCC(Nc1ccccc1)c1nnn[nH]1` (racemic) [Example 39, N-phenyl[4,4-dimethyl-1-(2H-tetraazol-5-yl)pentyl]amine], the Kd turned out to be 2.84 µM.

Consider `CC(C)CC(Nc1cccnc1)c1nnn[nH]1` (racemic) [Example 63, [3-methyl-1-(2H-tetraazol-5-yl)butyl]-3-pyridylamine], for which binding was put at a Kd of 47.3 µM.

`CC(C)CC(Nc1ccccc1)c1nnn[nH]1` (racemic) [Example 67, [3-methyl-1-(2H-tetraazol-5-yl)butyl]aniline]: the affinity, expressed as Kd, was 111 µM.

`COc1ccc2c(NC(CCC(C)(C)C)c3nnn[nH]3)ncnc2c1` (racemic) [Example 85, [4,4-dimethyl-1-(2H-tetraazol-5-yl)pentyl](7-methoxy-4-quinazolinyl)amine] displayed a Kd of 0.0913 µM.

As to `CC(C)(C)CCC(Nc1ncnc2cc(C(F)(F)F)ccc12)c1nnn[nH]1` (racemic) [Example 87, [4,4-dimethyl-1-(2H-tetraazol-5-yl)pentyl][7-(trifluoromethyl)-4-quinazolinyl]amine], binding was characterised by a dissociation constant (Kd) of 0.351 µM.

Molecule `Cc1nc(NC(CCC(C)(C)C)c2nnn[nH]2)c2ccccc2n1` (racemic) [Example 89, [4,4-dimethyl-1-(2H-tetraazol-5-yl)pentyl](2-methyl-4-quinazolinyl)amine] showed a Kd of 0.0857 µM.

`Cc1nc(N[C@@H](CCC(C)(C)C)C(=O)O)c2ccccc2n1` [Example 118, (S)-5,5-Dimethyl-2-((2-methylquinazolin-4-yl)amino)hexanoic acid] gave a Kd of 0.018 µM.

Molecule `CC(C)(C)CC[C@H](Nc1nc(C2CC2)nc2ccccc12)C(=O)O` [Example 119, (S)-2-((2-Cyclopropylquinazolin-4-yl)amino)-5,5-dimethylhexanoic acid] registered a dissociation constant Kd of 0.014 µM.

The Kd is the concentration at which binding is half-saturated.
